Laboratory results taken from ChEMBL document CHEMBL1201862, “PubChem BioAssay data set” (2004).
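Briefly, cells in 96-well plates were exposed to five compound concentrations for 48 h, and endpoints were estimated by linear interpolation. GI50 marks 50% less growth.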 Active and inactive are the calls of the source. No stated cut-off is given here; in the data, active = GI50 up to about 1.1 µM and inactive = higher.

Experiments:
Test in all cases: inhibition of tumour cell growth, NCI panel, 48 h
A549 = tested on: A549
SK-MEL-28 = tested on: SK-MEL-28
MDA-N = tested on: MDA-N
NCI-H522 = tested on: NCI-H522
SK-MEL-5 = tested on: SK-MEL-5
LOX IMVI = tested on: LOX IMVI
A498 = tested on: A498
T47D = tested on: T47D
SK-MEL-2 = tested on: SK-MEL-2
UO-31 = tested on: UO-31
MOLT-4 = tested on: MOLT-4
SNB-19 = tested on: SNB-19
COLO 205 = tested on: COLO 205
CCRF-CEM = tested on: CCRF-CEM
SF-268 = tested on: SF-268
Hs-578T = tested on: Hs-578T
PC-3 = tested on: PC-3
MDA-MB-231 = tested on: MDA-MB-231
MDA-MB-435 = tested on: MDA-MB-435
NCI-H460 = tested on: NCI-H460
IGROV-1 = tested on: IGROV-1
Malme-3M = tested on: Malme-3M
U-251 = tested on: U-251
BT-549 = tested on: BT-549
NCI/ADR-RES = tested on: NCI/ADR-RES
SF-295 = tested on: SF-295
HCT-15 = tested on: HCT-15
SK-OV-3 = tested on: SK-OV-3
NCI-H226 = tested on: NCI-H226
M14 = tested on: M14
SNB-75 = tested on: SNB-75
SN12C = tested on: SN12C
786-0 = tested on: 786-0
SF-539 = tested on: SF-539
EKVX = tested on: EKVX
UACC-257 = tested on: UACC-257
HL-60 = tested on: HL-60
RPMI-8226 = tested on: RPMI-8226
OVCAR-3 = tested on: OVCAR-3
OVCAR-8 = tested on: OVCAR-8
K562 = tested on: K562
HOP-92 = tested on: HOP-92
HCC 2998 = tested on: HCC 2998
OVCAR-4 = tested on: OVCAR-4
OVCAR-5 = tested on: OVCAR-5
TK-10 = tested on: TK-10
DU-145 = tested on: DU-145
CAKI-1 = tested on: CAKI-1
SW-620 = tested on: SW-620
KM12 = tested on: KM12
HCT-116 = tested on: HCT-116
MCF7 = tested on: MCF7
NCI-H23 = tested on: NCI-H23
ACHN = tested on: ACHN
HOP-62 = tested on: HOP-62
SR = tested on: SR
UACC-62 = tested on: UACC-62
HT-29 = tested on: HT-29

C=C1CC(Cn2ccc(=O)[nH]c2=O)(c2ccc(OC)cc2)OC1=O (centres undefined)
GI50 (A549): 24 µM (inactive) | GI50 (SK-MEL-28): 18 µM (inactive) | GI50 (MDA-N): 12.7 µM (inactive) | GI50 (NCI-H522): 1.94 µM (inactive) | GI50 (SK-MEL-5): 13.9 µM (inactive) | GI50 (LOX IMVI): 10.9 µM (inactive) | GI50 (A498): 15.3 µM (inactive) | GI50 (T47D): 16.3 µM (inactive) | GI50 (SK-MEL-2): 12.8 µM (inactive) | GI50 (UO-31): 17.2 µM (inactive) | GI50 (MOLT-4): 2.5 µM (inactive) | GI50 (SNB-19): > 68.4 µM (inactive) | GI50 (COLO 205): 4.14 µM (inactive) | GI50 (CCRF-CEM): 2.88 µM (inactive) | GI50 (SF-268): 23.9 µM (inactive) | GI50 (Hs-578T): 18.1 µM (inactive) | GI50 (PC-3): 16 µM (inactive) | GI50 (MDA-MB-231): 16.6 µM (inactive) | GI50 (MDA-MB-435): 15.8 µM (inactive) | GI50 (NCI-H460): 40.6 µM (inactive) | GI50 (IGROV-1): 15.7 µM (inactive) | GI50 (Malme-3M): 10.1 µM (inactive) | GI50 (U-251): 22.3 µM (inactive) | GI50 (BT-549): 12.2 µM (inactive) | GI50 (NCI/ADR-RES): 16 µM (inactive) | GI50 (SF-295): 34.7 µM (inactive) | GI50 (HCT-15): 14.8 µM | GI50 (SK-OV-3): 28.8 µM (inactive) | GI50 (NCI-H226): 16.3 µM (inactive) | GI50 (M14): 7.21 µM (inactive) | GI50 (SNB-75): > 10 µM (inactive) | GI50 (SN12C): 13.8 µM (inactive) | GI50 (786-0): 11.7 µM (inactive) | GI50 (SF-539): 18.6 µM (inactive) | GI50 (EKVX): 19.5 µM (inactive) | GI50 (UACC-257): 14.8 µM (inactive) | GI50 (HL-60): 2.35 µM (inactive) | GI50 (RPMI-8226): 2.88 µM (inactive) | GI50 (OVCAR-3): 19.3 µM (inactive) | GI50 (OVCAR-8): 20.1 µM (inactive) | GI50 (K562): 3.2 µM (inactive) | GI50 (HOP-92): 2.34 µM (inactive) | GI50 (HCC 2998): 13 µM (inactive) | GI50 (OVCAR-4): 16.8 µM (inactive) | GI50 (OVCAR-5): 17.5 µM (inactive) | GI50 (TK-10): 10 µM (inactive) | GI50 (DU-145): 17.4 µM (inactive) | GI50 (CAKI-1): 6.34 µM (inactive) | GI50 (SW-620): 3.7 µM (inactive) | GI50 (KM12): 18.8 µM (inactive) | GI50 (HCT-116): 6.15 µM (inactive) | GI50 (MCF7): 4.43 µM (inactive) | GI50 (NCI-H23): 11.2 µM (inactive) | GI50 (ACHN): 18.7 µM (inactive) | GI50 (HOP-62): 47.4 µM (inactive) | GI50 (SR): 2.9 µM (inactive) | GI50 (UACC-62): 14.3 µM (inactive) | GI50 (HT-29): 13.2 µM (inactive)

Clc1ccc(C(Cc2cccc(Cl)c2)c2c(Cl)nc(N3CCNCC3)nc2Cl)cc1 (centres undefined)
GI50 (A549): 16 µM (inactive) | GI50 (SK-MEL-28): 19.5 µM (inactive) | GI50 (MDA-N): 16.1 µM (inactive) | GI50 (NCI-H522): 14.8 µM (inactive) | GI50 (SK-MEL-5): 16.1 µM (inactive) | GI50 (LOX IMVI): 12.9 µM (inactive) | GI50 (A498): 15.2 µM (inactive) | GI50 (T47D): 16.4 µM (inactive) | GI50 (SK-MEL-2): 21.6 µM (inactive) | GI50 (UO-31): 12.9 µM (inactive) | GI50 (MOLT-4): 12.2 µM (inactive) | GI50 (SNB-19): 16.9 µM (inactive) | GI50 (COLO 205): 2.9 µM (inactive) | GI50 (CCRF-CEM): 15.3 µM (inactive) | GI50 (Hs-578T): 19.8 µM (inactive) | GI50 (PC-3): 16.9 µM (inactive) | GI50 (MDA-MB-231): 13.5 µM (inactive) | GI50 (MDA-MB-435): 16.7 µM (inactive) | GI50 (NCI-H460): 16.7 µM (inactive) | GI50 (IGROV-1): 69.2 µM (inactive) | GI50 (Malme-3M): 13.6 µM (inactive) | GI50 (U-251): 16.4 µM (inactive) | GI50 (BT-549): 20.6 µM (inactive) | GI50 (NCI/ADR-RES): 18 µM (inactive) | GI50 (SF-295): 16.8 µM (inactive) | GI50 (HCT-15): 13.6 µM | GI50 (SK-OV-3): 13.7 µM (inactive) | GI50 (NCI-H226): 3.12 µM (inactive) | GI50 (M14): 13.4 µM (inactive) | GI50 (SNB-75): 13.3 µM (inactive) | GI50 (786-0): 14.4 µM (inactive) | GI50 (SF-539): 19.5 µM (inactive) | GI50 (EKVX): 0.128 µM (active) | GI50 (UACC-257): 18.8 µM (inactive) | GI50 (HL-60): 11.1 µM (inactive) | GI50 (RPMI-8226): 22.3 µM (inactive) | GI50 (OVCAR-3): 15.8 µM (inactive) | GI50 (OVCAR-8): 19.1 µM (inactive) | GI50 (K562): 12.6 µM (inactive) | GI50 (HOP-92): 13.9 µM (inactive) | GI50 (HCC 2998): 15.1 µM (inactive) | GI50 (OVCAR-4): 16.5 µM (inactive) | GI50 (OVCAR-5): 12.5 µM (inactive) | GI50 (TK-10): 16.4 µM (inactive) | GI50 (DU-145): 19.7 µM (inactive) | GI50 (CAKI-1): 12.1 µM (inactive) | GI50 (SW-620): 16.5 µM (inactive) | GI50 (KM12): 13.9 µM (inactive) | GI50 (HCT-116): 13.2 µM (inactive) | GI50 (MCF7): 10.8 µM (inactive) | GI50 (NCI-H23): 19 µM (inactive) | GI50 (ACHN): 15.5 µM (inactive) | GI50 (HOP-62): 15.4 µM (inactive) | GI50 (SR): 5.38 µM (inactive) | GI50 (UACC-62): 19.5 µM (inactive) | GI50 (HT-29): > 100 µM (inactive)
